What is called inhibition is the change of the read-out against control, counted positive when it falls. What is called GI50 is the concentration giving 50% growth inhibition.

Where only a bound is given, the exact number is not on record here.

The values that follow come from patent US20250171451A1, “NOVEL HETEROCYCLIC COMPOUND AND PHARMACEUTICAL COMPOSITION COMPRISING SAME” (Samjin Pharmaceutical Co., Ltd., priority 2022, published 2025).

For experiment [1], the target named is T1, recombinant GST-TEAD1 proteins (209 to 426 a.a.) (Homo sapiens, UniProt P28347).
T1 construct: recombinant GST-TEAD1 proteins (209 to 426 a.a.)
T1 sequence (P28347 209-426): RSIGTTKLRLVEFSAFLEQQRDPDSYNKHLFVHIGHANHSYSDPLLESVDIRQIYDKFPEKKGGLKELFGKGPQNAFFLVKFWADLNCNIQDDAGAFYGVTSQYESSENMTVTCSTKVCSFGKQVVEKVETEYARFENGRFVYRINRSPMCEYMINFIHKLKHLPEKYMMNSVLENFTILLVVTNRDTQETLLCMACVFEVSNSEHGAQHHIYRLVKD
In words: Evaluation of palmitoylation of TEAD protein. Format: biochemical. The note with it: 5 μM compound, 15 minutes preincubation, 3 μM alkyne palmitoyl-CoA 30 minutes, pH 6.4, vs DMSO control. In a few lines:
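GST-TEAD1 (aa 209–426) preincubated 15 min with 5 μM compound, then autopalmitoylated 30 min with 3 μM alkyne palmitoyl-CoA in 50 mM MES pH 6.4; stopped with 1% SDS. Click biotinylation, SDS-PAGE and streptavidin-HRP blot; band intensity relative to DMSO control, normalised to anti-GST signal.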

In experiment [2] the test system is TEAD response element (TRE) luciferase reporter in MCF-7 cell lines. Briefly: TEAD response element (TRE) reporter assay. Format: cell-based. The note with it: 0.2 μM compound, 24 hours, MCF-7 TEAD reporter cells, relative to vehicle (1% DMSO); for inhibition at 0.2 µM: Homo sapiens, MCF7. The method, boiled down:
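MCF-7 cells stably carrying a TRE-driven firefly luciferase reporter, treated 24 h after plating with compound at 0.2 μM final (1% DMSO) in serum-free medium for 24 h. Luminescence expressed relative to vehicle control set at 10000.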
Background: A reporter such as luciferase makes a cellular process visible.

Experiment [3] relates to NF2-deficient mesothelioma cell line NCI-H226. Briefly: Evaluation of inhibition of cancer cell proliferation (CellTiter-Glo). It is filed as cell-based. The settings on record: Homo sapiens, 120 h, NCI-H226 cells, five days treatment, 2% FBS, read-out: Cancer cell growth inhibition NCI-H226 (GI50). As for the experimental part: The NF2-deficient mesothelioma cell line NCI-H226 was purchased from ATCC (#CRL-5826). NCI-H226 cells were cultured in RRPMI medium (ATCC) containing penicillin (100 units/mL), streptomycin (100 μg/mL) and 10% fetal bovine serum (FBS) at 37° C. and 5% CO2.
In 24 hours after dispensing said NCI-H226 cells into a 96-well plate, the cell culture medium was removed all, and then each compound corresponding to a certain concentration section (0.01, 0.05, 0.1, 0.5, 1, 5, 10 μM) or a vehicle solvent (final 1% DMSO) was diluted with a culture medium containing 2% FBS, treated at 100 μL for each well, and then cultured at 37° C. and 5% CO2. In five days after said treatment, CellTiter-Glo@2.0 Reagent (Promega) was treated in the same amount as the culture medium to measure cell growth, and placed in a shaker for two minutes so as to be well mixed, after which the plate was cultured at room temperature for ten minutes to stabilize a luminescence signal. After that, for ATP measurement through an intracellular luciferase reaction, the luminescence signal was measured using a microplate reader (TECAN). The value of the […] (GI50) at the moment when the cell proliferation was reduced by half was derived using the SoftMax Pro 5.4.1 program, and the results are shown in table 10 below.
On the technique in general: Cellular ATP, detected with luciferase, serves as a proxy for viable cell number.

Take `C=CC(=O)Nc1cnc2c(c1)c(C)cn2Cc1ccc(C(F)(F)F)cc1` [Compound 3, N-(3-methyl-1-(4-(trifluoromethyl)benzyl)-1H-pyrrolo[2,3-b]pyridin-5-yl)acrylamide]: the inhibition at 5 µM in experiment [1] was greater than 80%. Moreover, in experiment [2], the inhibition at 0.2 µM was greater than 50%. Also, the GI50 in experiment [3] is 70 nM.
Regarding `C=CC(=O)Nc1cnc2c(c1)c(C)cn2-c1ccc(C(F)(F)F)cc1` [Compound 27, N-(3-methyl-1-(4-(trifluoromethyl)phenyl)-1H-pyrrolo[2,3-b]pyridin-5-yl)acrylamide], the inhibition at 5 µM in experiment [1] is greater than 80%. Also, in experiment [2], the inhibition at 0.2 µM was greater than 50%. Besides, in experiment [3], the GI50 came out at 80 nM.
Consider `C=CC(=O)Nc1cnc2c(c1)c(Br)cn2Cc1ccc(C(F)(F)F)cc1` [Compound 40, N-(3-bromo-1-(4-(trifluoromethyl)benzyl)-1H-pyrrolo[2,3-b]pyridin-5-yl)acrylamide], for which, in experiment [1], the inhibition at 5 µM was greater than 80%. Besides, the inhibition at 0.2 µM in experiment [2] was greater than 50%. Moreover, the GI50 in experiment [3] was determined as 220 nM.
On to `C=CC(=O)Nc1cnc2c(c1)c(C)nn2-c1ccc(C(F)(F)F)cc1` [Compound 42, N-(3-methyl-1-(4-(trifluoromethyl)phenyl)-1H-pyrazolo[3,4-b]pyridin-5-yl)acrylamide], for which, in experiment [1], the inhibition at 5 µM was greater than 80%. Also, in experiment [2], the inhibition at 0.2 µM was greater than 50%. Further, the GI50 in experiment [3] worked out at 10 nM.
In the case of `C=CC(=O)Nc1cnc2c(c1)c(Cl)cn2Cc1ccc(C(F)(F)F)cc1` [Compound 43, N-(3-chloro-1-(4-(trifluoromethyl)benzyl)-1H-pyrrolo[2,3-b]pyridin-5-yl)acrylamide], the inhibition at 5 µM in experiment [1] is greater than 80%. Besides, in experiment [2], the inhibition at 0.2 µM is greater than 50%. The GI50 in experiment [3] came to 220 nM.
For `C=CC(=O)Nc1cnc2c(c1)c(C)cn2-c1cccc(C(F)(F)F)c1` [Compound 50, N-(3-methyl-1-(3-(trifluoromethyl)phenyl)-1H-pyrrolo[2,3-b]pyridin-5-yl)acrylamide], the inhibition at 5 µM in experiment [1] is greater than 80%. Also, the inhibition at 0.2 µM in experiment [2] is greater than 50%. The GI50 in experiment [3] turned out to be 280 nM.
Consider `C=CC(=O)Nc1cnc2c(c1)c(C)cn2-c1ccc(Cl)cc1` [Compound 54, N-(1-(4-chlorophenyl)-3-methyl-1H-pyrrolo[2,3-b]pyridin-5-yl)acrylamide], for which, in experiment [1], the inhibition at 5 µM was in the range of 40 to 80%. The same compound displayed an inhibition at 0.2 µM in experiment [2] greater than 50%. Also, the GI50 in experiment [3] is 170 nM.
Turning to `C=CC(=O)Nc1cnc2c(c1)c(C)nn2-c1ccc(Cl)cc1` [Compound 65, N-(1-(4-chlorophenyl)-3-methyl-1H-pyrazolo[3,4-b]pyridin-5-yl)acrylamide], the inhibition at 5 µM in experiment [1] was greater than 80%. The inhibition at 0.2 µM in experiment [2] was greater than 50%. Further, the GI50 in experiment [3] came to 50 nM.
Regarding `C=CC(=O)Nc1cnc2c(c1)c(C)nn2-c1ccc(OC(F)(F)F)cc1` [Compound 66, N-(3-methyl-1-(4-(trifluoromethoxy)phenyl)-1H-pyrazolo[3,4-b]pyridin-5-yl)acrylamide], in experiment [1], the inhibition at 5 µM was greater than 80%. Besides, in experiment [2], the inhibition at 0.2 µM was greater than 50%. For the same compound, the GI50 in experiment [3] turned out to be 50 nM.
Turning to `C=CC(=O)Nc1cnc2c(c1)c(C)nn2-c1ccc(C(F)(F)F)nc1` [Compound 77, N-(3-methyl-1-(6-(trifluoromethyl)pyridin-3-yl)-1H-pyrazolo[3,4-b]pyridin-5-yl)acrylamide], the inhibition at 5 µM in experiment [1] is 40 to 80%. Also, the inhibition at 0.2 µM in experiment [2] was greater than 50%. Besides, the GI50 in experiment [3] came out at 30 nM.
As to `C=CC(=O)N(C)c1cnc2c(c1)c(C)nn2-c1ccc(C(F)(F)F)cc1` [Compound 86, N-methyl-N-(3-methyl-1-(4-(trifluoromethyl)phenyl)-1H-pyrazolo[3,4-b]pyridin-5-yl)acrylamide], the inhibition at 5 µM in experiment [1] was greater than 80%. In experiment [2], this compound returned an inhibition at 0.2 µM greater than 50%. Also, in experiment [3], the 50% growth inhibitory concentration (GI50) is 30 nM.
As for `C=CC(=O)N(C)c1cnc2c(c1)c(C)nn2-c1ccc(OC(F)(F)F)cc1` [Compound 90, N-methyl-N-(3-methyl-1-(4-(trifluoromethoxy)phenyl)-1H-pyrazolo[3,4-b]pyridin-5-yl)acrylamide], the inhibition at 5 µM in experiment [1] is greater than 80%. The same compound registered an inhibition at 0.2 µM in experiment [2] greater than 50%. The GI50 in experiment [3] came to 30 nM.
As for `C=CC(=O)N(C)c1cnc2c(c1)c(C)nn2-c1ccc(C(F)(F)F)nc1` [Compound 92, N-methyl-N-(3-methyl-1-(6-(trifluoromethyl)pyridin-3-yl)-1H-pyrazolo[3,4-b]pyridin-5-yl)acrylamide], the inhibition at 5 µM in experiment [1] fell in the range of 40 to 80%. This compound also registered an inhibition at 0.2 µM in experiment [2] greater than 50%. For the same compound, in experiment [3], the GI50 stood at 50 nM.
`C=CC(=O)Nc1cnc2c(c1)c(C)nn2-c1cnc(C(F)(F)F)nc1` [Compound 95, N-(3-methyl-1-(2-(trifluoromethyl)pyrimidin-5-yl)-1H-pyrazolo[3,4-b]pyridin-5-yl)acrylamide]: the inhibition at 5 µM in experiment [1] lay within 40 to 80%. In experiment [2], the inhibition at 0.2 µM is greater than 50%. Further, the GI50 in experiment [3] turned out to be 300 nM.
On to `C=CC(=O)Nc1cnc2c(c1)c(C)nn2-c1ccc(C(F)(F)F)cn1` [Compound 97, N-(3-methyl-1-(5-(trifluoromethyl)pyridin-2-yl)-1H-pyrazolo[3,4-b]pyridin-5-yl)acrylamide], for which the inhibition at 5 µM in experiment [1] was less than 40%. For the same compound, in experiment [2], the inhibition at 0.2 µM is greater than 50%.
With `C=CC(=O)Nc1cnc2c(c1)c(C)nn2-c1ccc(O)cc1` [Compound 98, N-(1-(4-hydroxyphenyl)-3-methyl-1H-pyrazolo[3,4-b]pyridin-5-yl)acrylamide], the inhibition at 5 µM in experiment [1] is less than 40%. In experiment [2], the inhibition at 0.2 µM is less than 30%.
For the compound `C=CC(=O)Nc1cnc2c(c1)c(C)nn2-c1cnc(C(F)(F)F)c(C)c1` [Compound 99, N-(3-methyl-1-(5-methyl-6-(trifluoromethyl)pyridin-3-yl)-1H-pyrazolo[3,4-b]pyridin-5-yl)acrylamide], the inhibition at 5 µM in experiment [1] is 40 to 80%. The same compound displayed an inhibition at 0.2 µM in experiment [2] greater than 50%.
For `C=CC(=O)Nc1cnc2c(c1)c(C)nn2-c1ccnc(C(F)(F)F)c1` [Compound 100, N-(3-methyl-1-(2-(trifluoromethyl)pyridin-4-yl)-1H-pyrazolo[3,4-b]pyridin-5-yl)acrylamide], in that order: less than 40% and greater than 50%.
`C=CC(=O)Nc1cnc2c(c1)c(C)nn2-c1cnn(C(F)(F)F)c1` [Compound 101, N-(3-methyl-1-(1-(trifluoromethyl)-1H-pyrazol-4-yl)-1H-pyrazolo[3,4-b]pyridin-5-yl)acrylamide]: the inhibition at 5 µM in experiment [1] was 40 to 80%. Besides, in experiment [2], the inhibition at 0.2 µM is greater than 50%.
`C=CC(=O)Nc1cnc2c(c1)c(C)nn2-c1ccc(N)cc1` [Compound 102, N-(1-(4-aminophenyl)-3-methyl-1H-pyrazolo[3,4-b]pyridin-5-yl)acrylamide]: the inhibition at 5 µM in experiment [1] is less than 40%. In experiment [2], this compound came in with an inhibition at 0.2 µM of less than 30%.
In the case of `C=CC(=O)Nc1cnc2c(c1)c(C)nn2-c1ccc(OC(F)(F)F)nc1` [Compound 103, N-(3-methyl-1-(6-(trifluoromethoxy)pyridin-3-yl)-1H-pyrazolo[3,4-b]pyridin-5-yl)acrylamide], in experiment [1], the inhibition at 5 µM was in the range of 40 to 80%. In experiment [2], this compound had an inhibition at 0.2 µM greater than 50%.
As to `C=CC(=O)Nc1cnc2c(c1)c(C)nn2-c1ccc(C#N)cc1` [Compound 104, N-(1-(4-cyanophenyl)-3-methyl-1H-pyrazolo[3,4-b]pyridin-5-yl)acrylamide], the inhibition at 5 µM in experiment [1] is less than 40%. In experiment [2], the inhibition at 0.2 µM was greater than 50%.
Take `C=CC(=O)Nc1cnc2c(c1)c(C)nn2-c1cc(Cl)c(Cl)cc1C` [Compound 105]: in experiment [1], the inhibition at 5 µM was in the range of 40 to 80%. Further, the inhibition at 0.2 µM in experiment [2] is greater than 50%. For the same compound, in experiment [3], the GI50 was 260 nM.
For the compound “N-(1-(4-(trifluoromethyl)benzyl)-1H-pyrazolo[3,4-b]pyridin-5-yl)acrylamide [Compound 5]”, the “% of inhibition of TEAD1 palmitoylation at 5 μM” value in experiment [1] is “A (>80% inhibition)”. Further, the “% of inhibition of TRE luciferase at 0.2 μM” value in experiment [2] is given as “A (>50% inhibition)”.
